Measurements as given in US20250082794A1, “ANTIMONY CHELATES FOR TARGETED AUGER THERAPY AND IMAGING DIAGNOSTICS” (Wisconsin Alumni Research Foundation, priority 2023, published 2025).

Assay: SPECT and PET imaging biodistribution in mice
Assay type: in vivo, BALB/c mice
Procedure: For in vivo imaging and stability studies, ^117Sb was produced in 0.5 M NH4OAc at the University of Wisconsin-Madison and experiments were conducted the same day. 2 mL of ^117Sb in 0.5 M NH4OAc pH 4 solution was combined with 220 μL of 10 mM TRENCAM in 20% DMSO solution and heated to 80° C. for 1 h. Quantitative radiolabeling was confirmed via TLC. A 1:5 dilution of the radiolabeling solution with DI H2O was performed before passing it through a C8 Sep-Pak® cartridge (Waters, Milford, MA, USA), preconditioned with 5 mL EtOH and 5 mL H2O) to trap the [^117Sb]Sb-TRENCAM complex. The cartridge was rinsed with 1 mL H2O to remove NH4OAc buffer and unchelated ^117/119Sb, and then the [^117Sb]Sb-TRENCAM complex was eluted with EtOH and collected dropwise. […]
Two groups of healthy 3-month-old male BALB/c mice (n=3) ([…]) were injected with 150 μL ^117Sb solutions. […] In both cases, scanner calibration occurred by imaging vials of ^117Sb activity and correlating image signal strength to activity measured via High Purity Germanium (HPGe) gamma spectroscopy. […] Using co-registered CT images, manual volume-of-interest delineation of tissues allowed activity biodistribution measurement, as expressed as percent injected activity per gram of tissue (% IA/g), using either Inveon Research Workstation (Siemens) for PET VOI analysis or Imalytics 3.0 (MILabs) for SPECT VOI analysis. […]

[OH][Sb-]([OH])([OH])([OH])([OH])[OH] [[^117Sb]Sb(OH)6^−]
uptake in bone (PET images) (PET 150 min post injection): uptake | clearance route and organ uptake by PET and SPECT imaging (tail vein injection, imaged 20-240 min post injection): renal clearance with liver accumulation
